Target: T1, calcium receptor (CasR) (Homo sapiens, UniProt P41180)
T1 construct: expressed in transfected cells; host or cells: HEK 293
T1 sequence (P41180 20-1078): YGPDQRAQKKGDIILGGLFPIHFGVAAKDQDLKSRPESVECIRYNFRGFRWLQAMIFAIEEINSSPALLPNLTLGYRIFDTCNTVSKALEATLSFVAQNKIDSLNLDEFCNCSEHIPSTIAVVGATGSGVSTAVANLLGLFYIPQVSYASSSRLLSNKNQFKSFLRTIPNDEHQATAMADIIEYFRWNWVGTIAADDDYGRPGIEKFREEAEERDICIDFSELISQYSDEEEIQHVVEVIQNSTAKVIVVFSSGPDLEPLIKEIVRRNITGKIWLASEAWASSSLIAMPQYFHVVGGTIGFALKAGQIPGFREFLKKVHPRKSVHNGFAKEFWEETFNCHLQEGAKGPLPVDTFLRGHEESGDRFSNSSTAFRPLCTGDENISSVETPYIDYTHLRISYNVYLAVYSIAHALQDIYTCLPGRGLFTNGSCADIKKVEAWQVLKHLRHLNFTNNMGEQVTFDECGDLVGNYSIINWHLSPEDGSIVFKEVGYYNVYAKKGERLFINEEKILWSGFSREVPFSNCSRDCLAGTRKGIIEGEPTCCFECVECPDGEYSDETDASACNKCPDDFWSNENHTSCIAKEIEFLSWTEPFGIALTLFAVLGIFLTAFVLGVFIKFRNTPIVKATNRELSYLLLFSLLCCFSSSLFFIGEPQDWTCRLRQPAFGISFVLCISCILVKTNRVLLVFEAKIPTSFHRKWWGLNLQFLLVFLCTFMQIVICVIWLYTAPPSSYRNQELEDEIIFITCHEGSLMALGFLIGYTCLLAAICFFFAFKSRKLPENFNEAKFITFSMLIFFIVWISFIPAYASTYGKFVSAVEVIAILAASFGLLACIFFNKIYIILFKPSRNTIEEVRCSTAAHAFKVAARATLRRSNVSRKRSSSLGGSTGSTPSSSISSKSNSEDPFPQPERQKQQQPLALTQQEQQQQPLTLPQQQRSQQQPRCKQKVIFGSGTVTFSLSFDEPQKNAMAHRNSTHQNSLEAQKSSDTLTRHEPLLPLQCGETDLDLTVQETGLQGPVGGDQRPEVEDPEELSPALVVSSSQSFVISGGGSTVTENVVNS
Assay: FLIPR Assay for Evaluating the Potency and Selectivity of Test Compounds
Assay type: cell-based
Details: HEK 293 cells expressing CasR; 30 minutes pre-incubation; stimulation by 1.7 mM Ca2+; read 42 seconds after stimulation
From the text: FLIPR Assay for Evaluating the Potency and Selectivity of Test Compounds
Human kidney cell (HEK 293) expressing the calcium receptor (CasR) are used to detect antagonists of the receptor using Fluorometric imaging plate reader (FLIPR, Molecular Devices, Sunnyvale Calif.). Receptor activation by extracellular calcium results in the release of calcium from intracellular stores into the cytosol. A fluorescent indicator (Fluo-4) is internalized by the cells from growth media and interacts with calcium released into the cytosol to provide a means of quantifying intracellular Ca^2+ levels and receptor agonism/antagonism. Fluorescence intensity is detected by the FLIPR CCD camera and traced as a function of time. Potential antagonists are identified by their ability to decrease this fluorescent response.
Prior to the addition of test compound cells are washed with a 10 mM HEPES buffer solution. The test compound, for example the compound of Example 1, is added at various doses (from 1 µM to 3 nM) and pre-incubated with cells for 30 minutes followed by stimulation of the CasR by the addition of 1.7 mM Ca^2+. IC50 values are based on the ability of the cells to inhibit the Ca^2+ induced increase in intracellular Ca^2+. Fluorescence signal is read 42 seconds after the stimulation of the CasR by the addition of 1.7 mM Ca^2+.
The following table provides FLIPR IC50 data for the specified Examples. The IC50s are reported as micromolar concentration with n being the number of times the particular compound was assayed.

Compound	IC50 [µM]
CN(C)c1ccc(-c2nccc3nc(-c4ccccc4O)n(CCc4ccccc4)c(=O)c23)cn1 [Example 27, 5-(6-Dimethylamino-pyridin-3-yl)-2-(2-hydroxy-phenyl)-3-phenethyl-3H-pyrido[4,3-d]pyrimidin-4-one]	2.26
Cc1cc(-c2nccc3nc(-c4ccccc4O)n(CCc4ccccc4)c(=O)c23)cnc1N(C)C [Example 28, 5-(6-Dimethylamino-5-methyl-pyridin-3-yl)-2-(2-hydroxy-phenyl)-3-phenethyl-3H-pyrido[4,3-d]pyrimidin-4-one]	4.83
O=c1c2c(-c3ccc(N4CCCC4)nc3)nccc2nc(-c2ccccc2O)n1CCc1ccccc1 [Example 29, 5-(6-pyrrolidine-5-pyridin-3-yl)-2-(2-hydroxy-phenyl)-3-phenethyl-3H-pyrido[4,3-d]pyrimidin-4-one]	0.49
COc1nccc2nc(-c3ccccc3O)n(CCc3ccccc3)c(=O)c12 [Example 30, 2-(2-Hydroxy-phenyl)-5-methoxy-3-phenethyl-3H-pyrido[4,3-d]pyrimidin-4-one]	1.17
CC1(COc2nccc3nc(-c4ccccc4O)n(CCc4ccccc4)c(=O)c23)CC1 [Example 31, 2-(2-Hydroxy-phenyl)-5-(1-methyl-cyclopropylmethoxy)-3-phenethyl-3H-pyrido[4,3-d]pyrimidin-4-one]	1.93
CCCOc1nccc2nc(-c3ccccc3O)n(CCc3ccccc3)c(=O)c12 [Example 32, 2-(2-Hydroxy-phenyl)-3-phenethyl-5-propoxy-3H-pyrido[4,3-d]pyrimidin-4-one]	0.57
O=c1c2c(OC3CCC3)nccc2nc(-c2ccccc2O)n1CCc1ccccc1 [Example 33, 5-Cyclobutyloxy-2-(2-hydroxy-phenyl)-3-phenethyl-3H-pyrido[4,3-d]pyrimidin-4-one]	0.52
CC(C)COc1nccc2nc(-c3ccccc3O)n(CCc3ccccc3)c(=O)c12 [Example 34, 2-(2-Hydroxy-phenyl)-5-isobutoxy-3-phenethyl-3H-pyrido[4,3-d]pyrimidin-4-one]	1.47
CC(C)Oc1nccc2nc(-c3ccccc3O)n(CCc3ccccc3)c(=O)c12 [Example 35, 2-(2-Hydroxy-phenyl)-5-isopropoxy-3-phenethyl-3H-pyrido[4,3-d]pyrimidin-4-one]	0.38
O=c1c2c(OCC(F)(F)F)nccc2nc(-c2ccccc2O)n1CCc1ccccc1 [Example 36, 2-(2-Hydroxy-phenyl)-3-phenethyl-5-(2,2,2-trifluoro-ethoxy)-3H-pyrido[4,3-d]pyrimidin-4-one]	0.6
C[C@H](Cc1ccc(F)c(F)c1)n1c(-c2ncccc2O)nc2ccnc(C(F)(F)F)c2c1=O [Example 37a, (R)-3-(1-(3,4-difluorophenyl)propan-2-yl)-2-(3-hydroxypyridin-2-yl) 5-(trifluoromethyl)pyrido[4,3-d]pyrimidin-4(3H)-one]	0.008
C[C@@H](Cc1ccc(F)c(F)c1)n1c(-c2ncccc2O)nc2ccnc(C(F)(F)F)c2c1=O [Example 37b, (S)-3-(1-(3,4-difluorophenyl)propan-2-yl)-2-(3-hydroxypyridin-2-yl) 5-(trifluoromethyl)pyrido[4,3-d]pyrimidin-4(3H)-one]	2.12
COc1ccccc1CCn1c(-c2ncccc2O)nc2ccnc(C(F)(F)F)c2c1=O [Example 39, 3-(2-methoxyphenethyl)-2-(3-hydroxypyridin-2-yl)-5-(trifluoromethyl)pyrido[4,3-d]pyrimidin-4(3H)-one]	0.11
O=c1c2c(C(F)(F)F)nccc2nc(-c2ncccc2O)n1CCc1cccc(F)c1F [Example 40, 3-(2,3-difluorophenethyl)-2-(3-hydroxypyridin-2-yl)-5-(trifluoromethyl)pyrido[4,3-d]pyrimidin-4(3H)-one]	0.46
COc1ccc(F)cc1CCn1c(-c2ncccc2O)nc2ccnc(C(F)(F)F)c2c1=O [Example 41, 3-(5-fluoro-2-methoxyphenethyl)-2-(3-hydroxypyridin-2-yl)-5-(trifluoromethyl)pyrido[4,3-d]pyrimidin-4(3H)-one]	0.25
COc1cccc(F)c1CCn1c(-c2ncccc2O)nc2ccnc(C(F)(F)F)c2c1=O [Example 42, 3-(2-fluoro-6-methoxyphenethyl)-2-(3-hydroxypyridin-2-yl)-5-(trifluoromethyl)pyrido[4,3-d]pyrimidin-4(3H)-one]	1.12
CCC(Cc1ccccc1F)n1c(-c2ncccc2O)nc2ccnc(C(F)(F)F)c2c1=O (stereo not drawn) [Example 44, 3-(1-(2-fluorophenyl)butan-2-yl)-2-(3-hydroxypyridin-2-yl)-5-(trifluoromethyl)pyrido[4,3-d]pyrimidin-4(3H)-one]	2.44
COc1c(F)cccc1CCn1c(-c2ncccc2O)nc2ccnc(C(F)(F)F)c2c1=O [Example 45, 3-(3-fluoro-2-methoxyphenethyl)-2-(3-hydroxypyridin-2-yl)-5-(trifluoromethyl)pyrido[4,3-d]pyrimidin-4(3H)-one]	1.87
O=c1c2c(C(F)(F)F)nccc2nc(-c2ncccc2O)n1CCC1CCCC1 [Example 46, 3-(2-cyclopentylethyl)-2-(3-hydroxypyridin-2-yl)-5-(trifluoromethyl)pyrido[4,3-d]pyrimidin-4(3H)-one]	0.29
O=c1c2c(C(F)(F)F)nccc2nc(-c2ncccc2O)n1CCC1CCCCC1 [Example 47, 3-(2-cyclohexylethyl)-2-(3-hydroxypyridin-2-yl)-5-(trifluoromethyl)pyrido[4,3-d]pyrimidin-4(3H)-one]	0.06
C[C@H](CC1CCCCC1)n1c(-c2ncccc2O)nc2ccnc(C(F)(F)F)c2c1=O [Example 48a, (R)-3-(1-cyclohexylpropan-2-yl)-2-(3-hydroxypyridin-2-yl)-5-(trifluoromethyl)pyrido[4,3-d]pyrimidin-4(3H)-one]	0.16
C[C@@H](CC1CCCCC1)n1c(-c2ncccc2O)nc2ccnc(C(F)(F)F)c2c1=O [Example 48b, (S)-3-(1-cyclohexylpropan-2-yl)-2-(3-hydroxypyridin-2-yl)-5-(trifluoromethyl)pyrido[4,3-d]pyrimidin-4(3H)-one]	1.69
C[C@H](Cc1ccccc1)n1c(-c2cccc(F)c2O)nc2ccnc(C(F)(F)F)c2c1=O [Example 50, (R)-2-(3-fluoro-2-hydroxyphenyl)-3-(1-phenylpropan-2-yl)-5-(trifluoromethyl)pyrido[4,3-d]pyrimidin-4(3H)-one]	0.03
C[C@H](Cc1ccccc1)n1c(-c2ncc[nH]2)nc2ccnc(C(F)(F)F)c2c1=O [Example 51, (R)-2-(1H-imidazol-2-yl)-3-(1-phenylpropan-2-yl)-5-(trifluoromethyl)pyrido[4,3-d]pyrimidin-4(3H)-one]	0.11
CC(=O)Nc1cccnc1-c1nc2ccnc(C(F)(F)F)c2c(=O)n1CCc1ccccc1F [Example 52, N-(2-(3-(2-fluorophenethyl)-4-oxo-5-(trifluoromethyl)-3,4-dihydropyrido[4,3-d]pyrimidin-2-yl)pyridin-3-yl)acetamide]	0.23
C[C@H](Cc1ccccc1)n1c(-c2cscn2)nc2ccnc(C(F)(F)F)c2c1=O [Example 53, (R)-3-(1-phenylpropan-2-yl)-2-(thiazol-4-yl)-5-(trifluoromethyl)pyrido[4,3-d]pyrimidin-4(3H)-one]	0.26
O=c1c2c(C(F)(F)F)nccc2nc(-c2cscn2)n1CCc1ccccc1 [Example 54, 3-phenethyl-2-(thiazol-4-yl)-5-(trifluoromethyl)pyrido[4,3-d]pyrimidin-4(3H)-one]	0.71
